The results in this text go back to US20090209460A1, “COMPOSITIONS AND METHODS FOR TREATING OBESITY AND RELATED METABOLIC DISORDERS” (Amylin Pharmaceuticals, Inc., priority 2005, published 2009).

Like-named read-outs stand apart in the source and are kept apart here. Residues, ends and D or L forms follow the SMILES beside them.

One data set deals with NIH/Swiss mice. Description: acute food intake assay, lean overnight-fasted NIH/Swiss mice, intraperitoneal injection. It is filed as in vivo, mouse. As to conditions: for FI (60′, 200): % change relative to control, 60 min; for Food Intake Inhibition: mouse assay, dose of 200 mg/kg, measured at 60 minutes. The procedure:
The effect of NMX Peptides, FNX Peptides or NMX Receptor agonists on food intake when systemically administered was investigated using an acute food intake assay. This assay measured food consumption in lean subjects. Lean, group-housed, overnight-fasted NIH/Swiss mice. All in vivo tests were performed with peripheral injections of peptide. […] The dose-response data are presented herein. The protocol is described below. Female NIH/Swiss mice (8-24 weeks old) were group housed with a 12:12 hour light:dark cycle, with lights on at 0300. Water and a standard pelleted mouse chow diet are available ad libitum, except as noted. Animals are fasted starting at approximately 1530 hrs, 1 day prior to experiment. At time=0 min, all animals are given an intraperitoneal injection of vehicle or polypeptide in a volume of 200 uL/mouse and immediately given a pre-weighed amount (10-15 g) of the standard chow. Food is removed and weighed at 30, 60, and 120 minutes to determine the amount of food consumed. The effects of treatment on food intake are expressed as % change relative to control.

Data set [1] in a line: body weight and food intake in mice with diet induced obesity (mouse DIO), osmotic pump. Format: in vivo. As for the experimental part:
The effect of FN38 and related compounds on body weight and food intake in obese subjects was investigated. Mice having diet induced obesity (DIO) were used. All in vivo tests were performed with peripheral injections of peptide. […] 4-week-old male C57BL/6 mice were group housed with water and a standard pelleted mouse chow diet available ad libitum, except as noted, and were maintained on a on a high fat diet (58% kcal from fat) for 4 weeks prior to the experiment. At the end of fattening period, osmotic pumps were implanted interscapularly under anesthesia. Mice received pumps continuously delivering vehicle (50% DMSO in water or saline) or polypeptide at the dose indicated. Food intake and body weight measurements were obtained weekly.

A short description of data set [2]: brush border membrane (BBM) stability assay. The settings on record: brush border membrane extract (e.g. kidney). It is filed as in vitro ADME, human. The procedure:
Some exemplary NMX Peptides and FNX Peptides were tested for stability in a brush border membrane (BBM) assay as described herein. To determine the enzymatic stability of peptide hormones peptides are incubated with a preparation of human brush border membranes extract (e.g., kidney), and the stability of the peptide is determined by measuring concentration of the intact peptide at specific intervals. The brush border membrane extract contains dipeptidyl peptidase IV (DPP-IV), neutral endopeptidases, peptidyl-dipeptidase A, carboxypeptidases and aminopeptidases. These are the primary enzymes that degrade peptides in vivo and are found in the kidneys, liver, lungs and pancreas. Resistance against these human proteases would increase peptide half-life. In the BBM assay test peptide was subjected to digestion over a period of five (5) hours with human brush border membrane extracts, e.g. kidney, at 37° C. At desired timepoints digestion was stopped by addition of quench solution, typically 50% ACN, 1% FA. After centrifugation to remove membrane debris, supernatant was subjected to mass spectrometry using a selected ion scan for the intact molecule of interest. Values are expressed as a percent of stable. A value of at least 80 or greater is regarded as an extremely stable molecule. A value of at least 70 or greater is a molecule with significant stability.

Where [3] appears, read: percent compound remaining after a 5 hour incubation, human brush border membrane assay, read-out: hBBM.

In the case of `CC[C@H](C)[C@H](NC(=O)[C@@H](NC(=O)CNC(=O)CNC(=O)[C@@H]1CCCN1C(=O)[C@@H](NC(=O)[C@H](CCC(N)=O)NC(=O)[C@@H](NC(=O)[C@H](CCC(=O)O)NC(=O)[C@H](CCC(=O)O)NC(=O)[C@H](CC(=O)O)NC(=O)[C@@H](N)CO)C(C)C)C(C)C)C(C)C)C(=O)N[C@@H](CO)C(=O)N[C@@H](CC(N)=O)C(=O)NCC(=O)N[C@@H](Cc1ccc(O)cc1)C(=O)N[C@@H](Cc1ccccc1)C(=O)N[C@@H](CC(C)C)C(=O)N[C@@H](Cc1ccccc1)C(=O)N[C@@H](CCCNC(=N)N)C(=O)N1CCC[C@H]1C(=O)N[C@@H](CCCNC(=N)N)C(=O)N[C@@H](CC(N)=O)C(N)=O` [Compound 163452, reference compound] (H-SDEEVQVPGGVISNGYFLFRPRN-NH2; N-terminus assumed), the “reduction of food intake” value with NIH/Swiss mice (administered systemically (i.p. to mice), dose and time not stated) is reported as “up to 95%”. Besides, the “FI (60′, 200)” value with NIH/Swiss mice (food intake) is on record as −88%. Also, the ED50 (as a rule, the dose at which the effect has come halfway, by size or by number of responders) at t = 60 in the data set on NIH/Swiss mice (food intake, t = 60) came to 0.022 mg/kg. For the same compound, in the data set on NIH/Swiss mice (over 30 min, i.p., mice), the “ED50 for effect on food intake” value was 9.0 nmol/kg. For the same compound, in data set [1] (75 nmol/kg/day), the “body weight gain and food intake in the DIO assay” value was “decreased body weight gain and food intake”. Besides, in data set [1] (mouse DIO), the “long acting effect in mouse DIO” value is “did not have a long acting effect”. Further, the “d 14 BWt loss” value in data set [1] (mouse DIO, day 14) was 1.5%.
Turning to `CC(C)C[C@H](NC(=O)[C@H](CCCCN)NC(=O)[C@H](Cc1ccc(O)cc1)NC(=O)[C@H](Cc1c[nH]cn1)NC(=O)[C@H](Cc1ccccc1)NC(=O)[C@H](CC(C)C)NC(=O)[C@@H](N)Cc1ccccc1)C(=O)NCC(=O)N[C@@H](CCCCN)C(=O)N[C@@H](CO)C(=O)N[C@@H](CC(N)=O)C(=O)N[C@H](C(=O)N[C@H](C(=O)N[C@@H](CCC(=O)O)C(=O)N[C@@H](CCC(=O)O)C(=O)N[C@@H](CC(C)C)C(=O)N[C@@H](CCC(N)=O)C(=O)N[C@@H](CO)C(=O)N1CCC[C@H]1C(=O)N[C@@H](Cc1ccccc1)C(=O)N[C@@H](C)C(=O)N[C@@H](CO)C(=O)N[C@@H](CCC(N)=O)C(=O)N[C@@H](CO)C(=O)N[C@@H](CCCNC(=N)N)C(=O)NCC(=O)N[C@@H](Cc1ccc(O)cc1)C(=O)N[C@@H](Cc1ccccc1)C(=O)N[C@@H](CC(C)C)C(=O)N[C@@H](Cc1ccccc1)C(=O)N[C@@H](CCCNC(=N)N)C(=O)N1CCC[C@H]1C(=O)N[C@@H](CCCNC(=N)N)C(=O)N[C@@H](CC(N)=O)C(N)=O)C(C)C)C(C)C` [Des-(Ser6,Lys7,Thr8,Gln9)FN38] (H-FLFHYKLGKSNVVEELQSPFASQSRGYFLFRPRN-NH2; N-terminus assumed), the “Food Intake Inhibition” value with NIH/Swiss mice is −72%. Also, the remaining at 5 h in data set [2] (setting [3]) turned out to be 28%.
As for `CC(C)C[C@H](NC(=O)[C@H](CCCCN)NC(=O)[C@H](CCC(N)=O)NC(=O)[C@@H](NC(=O)[C@H](CCCCN)NC(=O)[C@H](CO)NC(=O)[C@@H](N)Cc1ccc(O)cc1)[C@@H](C)O)C(=O)NCC(=O)N[C@@H](CCCCN)C(=O)N[C@@H](CO)C(=O)N[C@@H](CC(N)=O)C(=O)N[C@@H](CCC(=O)O)C(=O)N[C@@H](CCC(=O)O)C(=O)N[C@@H](CC(C)C)C(=O)N[C@@H](CCC(N)=O)C(=O)N[C@@H](CO)C(=O)N1CCC[C@H]1C(=O)N[C@@H](CO)C(=O)N[C@@H](CCCNC(=N)N)C(=O)NCC(=O)N[C@@H](Cc1ccc(O)cc1)C(=O)N[C@@H](Cc1ccccc1)C(=O)N[C@@H](CC(C)C)C(=O)N[C@@H](Cc1ccccc1)C(=O)N[C@@H](CCCNC(=N)N)C(=O)N1CCC[C@H]1C(=O)N[C@@H](CCCNC(=N)N)C(=O)N[C@@H](CC(N)=O)C(N)=O` (H-YSKTQKLGKSNEELQSPSRGYFLFRPRN-NH2; N-terminus assumed), the “Food Intake Inhibition” value with NIH/Swiss mice is given as −69%. In addition, the remaining at 5 h in data set [2] (setting [3]) was 67%.
On the same counts, the results for `CC(C)C[C@H](NC(=O)[C@H](CCCCN)NC(=O)[C@H](CCC(N)=O)NC(=O)[C@@H](NC(=O)[C@H](CCCCN)NC(=O)[C@H](CO)NC(=O)[C@H](Cc1ccc(O)cc1)NC(=O)[C@H](Cc1c[nH]cn1)NC(=O)[C@H](Cc1ccccc1)NC(=O)[C@H](CC(C)C)NC(=O)[C@@H](N)Cc1ccccc1)[C@@H](C)O)C(=O)NCC(=O)N[C@@H](CCCCN)C(=O)N[C@@H](CO)C(=O)N[C@@H](CC(N)=O)C(=O)N[C@@H](CCC(=O)O)C(=O)N[C@@H](CCC(=O)O)C(=O)N[C@@H](CC(C)C)C(=O)N[C@@H](CCC(N)=O)C(=O)N[C@@H](CO)C(=O)N1CCC[C@H]1C(=O)N[C@@H](Cc1ccccc1)C(=O)N[C@@H](C)C(=O)N[C@@H](CO)C(=O)N[C@@H](CCC(N)=O)C(=O)N[C@@H](CO)C(=O)N[C@@H](CCCNC(=N)N)C(=O)NCC(=O)N[C@@H](Cc1ccc(O)cc1)C(=O)N[C@@H](Cc1ccccc1)C(=O)N[C@@H](CC(C)C)C(=O)N[C@@H](Cc1ccccc1)C(=O)N[C@@H](CCCNC(=N)N)C(=O)N1CCC[C@H]1C(=O)N[C@@H](CCCNC(=N)N)C(=O)N[C@@H](CC(N)=O)C(N)=O` [Des-Val16,Val17-FN38] (H-FLFHYSKTQKLGKSNEELQSPFASQSRGYFLFRPRN-NH2; N-terminus assumed) are −60% and 73%.
In the case of `CC(C)C[C@H](NC(=O)[C@H](CCC(=O)O)NC(=O)[C@H](CCC(=O)O)NC(=O)[C@@H](NC(=O)[C@@H](NC(=O)[C@H](CC(N)=O)NC(=O)[C@H](CO)NC(=O)[C@H](CCCCN)NC(=O)CNC(=O)[C@H](CC(C)C)NC(=O)[C@@H](N)CCCCN)C(C)C)C(C)C)C(=O)N[C@@H](CCC(N)=O)C(=O)N[C@@H](CO)C(=O)N1CCC[C@H]1C(=O)N[C@@H](Cc1ccccc1)C(=O)N[C@@H](C)C(=O)N[C@@H](CO)C(=O)N[C@@H](CCC(N)=O)C(=O)N[C@@H](CO)C(=O)N[C@@H](CCCNC(=N)N)C(=O)NCC(=O)N[C@@H](Cc1ccc(O)cc1)C(=O)N[C@@H](Cc1ccccc1)C(=O)N[C@@H](CC(C)C)C(=O)N[C@@H](Cc1ccccc1)C(=O)N[C@@H](CCCNC(=N)N)C(=O)N1CCC[C@H]1C(=O)N[C@@H](CCCNC(=N)N)C(=O)N[C@@H](CC(N)=O)C(N)=O` [Des-(Phe1-Gln9)FN38] (H-KLGKSNVVEELQSPFASQSRGYFLFRPRN-NH2; N-terminus assumed), the “Food Intake Inhibition” value with NIH/Swiss mice was −70%. For the same compound, the remaining at 5 h in data set [2] (setting [3]) came to 55%.
For the compound `CC[C@H](C)[C@H](NC(=O)[C@@H](NC(=O)CNC(=O)CNC(=O)[C@@H]1CCCN1C(=O)[C@@H](NC(=O)[C@H](CCC(N)=O)NC(=O)[C@@H](NC(=O)[C@H](CCC(=O)O)NC(=O)[C@H](CCC(=O)O)NC(=O)[C@H](CC(=O)O)NC(=O)[C@H](CO)NC(=O)[C@H](CC(N)=O)NC(=O)[C@H](CO)NC(=O)[C@H](CCCCN)NC(=O)CNC(=O)[C@H](CC(C)C)NC(=O)[C@H](CCCCN)NC(=O)[C@H](CCC(N)=O)NC(=O)[C@@H](NC(=O)[C@H](CCCCN)NC(=O)[C@H](CO)NC(=O)[C@H](Cc1ccc(O)cc1)NC(=O)[C@H](Cc1c[nH]cn1)NC(=O)[C@H](Cc1ccccc1)NC(=O)[C@H](CC(C)C)NC(=O)[C@@H](N)Cc1ccccc1)[C@@H](C)O)C(C)C)C(C)C)C(C)C)C(=O)N[C@@H](CO)C(=O)N[C@@H](CC(N)=O)C(=O)NCC(N)=O` [Compound 165061] (H-FLFHYSKTQKLGKSNSDEEVQVPGGVISNG-NH2; N-terminus assumed), the “FI (60′, 200)” value in the data set with NIH/Swiss mice (food intake) worked out at 0%. The remaining at 5 h in data set [2] (percent of stable, human brush border membrane extracts, five hours, 37° C., read-out: BBM) worked out at 57%.
